How the values were obtained:
[1] = tested on: Human bladder cancer (T-24) cell line; test: MTT cell viability assay, T-24 cells; format: cell-based; details: bladder cancer cell line T-24, treatment for 24 h (table title), means of three experiments, read-out: IC50 (μM* ± SD) T-24
Method: (§1) Human bladder cancer (T-24) and human prostate carcinoma (PC-3) cell lines were obtained from American Type Culture Collection (ATCC; Manassas, VA USA). Cells were maintained in Dulbecco’s modified Eagle medium with 10% foetal bovine serum at 37 °C and 5% CO2. All the operations were carried out under strict aseptic conditions. The culture medium was removed to a centrifuge tube containing 9.0 ml complete culture medium and spanned at approximately 125 × g for 5 to 7 min. The cell layer was rinsed with 0.25% (w/v) trypsin- […] EDTA solution by which all traces of serum-containing inhibitor were removed. Trypsin EDTA solution 2.0 to 3.0 ml was added to a flask and cells were monitored under an inverted microscope until the cell layer was dispersed (usually within 5–15 min). A complete growth medium was added (6.0–8.0 ml), and cells were aspirated by gentle pipetting. The cell pellet was suspended with the recommended complete medium and dispensed into a 75 cm^2 culture flask. The culture vessel containing the complete growth medium was placed in the incubator for 24 h to at 37 °C. The cells were treated with different concentrations (0.39, 1.60, 6.25, 25, and 100 μg/ml) of each of the test compounds or doxorubicin, […], then the plates were examined under the inverted microscope and finally the MTT assay was carried out.
(§2) Anti-cancer activity of the newly synthesised compounds was evaluated in vitro against both T-24 and PC-3 cell lines according to the MTT method. Cells were seeded into 96-well plates (flat bottom) at a density of 10 000 cells/well for 24 h. The vial of MTT to be used was reconstituted with 3 ml of medium or balanced salt solution without phenol red and serum. then, a reconstituted MTT vial was added in an amount equal to 10% of the culture medium volume. Cultures were incubated for 2–4 h depending on the cell type and maximum cell density and removed from the incubator and the formazan crystals were dissolved via the addition of an amount of MTT solubilisation solution (M-8910) equal to the original culture medium volume. ROBONIK P2000 spectrophotometer at a wavelength of 570 nm was used to measure the colour intensity spectrophotometrically. The survival curve of both T-24 and PC-3 cells was obtained by plotting the percentage of surviving cells against the drug after each compound. The IC50 value for each test compound and the reference drug doxorubicin was calculated.
(§3) In this study, all the newly synthesised CP derivatives were subjected to anticancer activity evaluation against bladder (T-24) and prostate cancer (PC-3) cell lines. The compounds were evaluated for their activity using 5 doses determinations (100 μg/ml, 25 μg/ml, 6.25 μg/ml, 1.60 μg/ml, and 0.39 μg/ml). Their half-maximal inhibitory concentration (IC50) values were measured. Doxorubicin was chosen as a reference anticancer drug[65].

[2] = tested on: human prostate carcinoma (PC-3) cell line; test: MTT cell viability assay, PC-3 cells; format: cell-based; details: prostate cancer cell line PC-3, treatment for 24 h (table title), means of three experiments, read-out: IC50 (μM* ± SD) PC-3
Method: as §1, §2, §3

[3] = biological target: T1, human DNA Topo II (Homo sapiens, UniProt P11388); test: In vitro DNA Topo II-mediated relaxation assay (supercoiled pBR322); format: biochemical; details: for IC50: means of three experiments, read-out: Topo II IC50 (µM*±SD); for inhibition at 0.1 µM / inhibition at 1 µM / inhibition at 10 µM / inhibition at 100 µM: recombinant Topo II relaxation; for inhibition at 0.1 µM: compound at 0.1 μM, read-out: Percentage of inhibition of Topo II, 0.1 μM; for inhibition at 1 µM: compound at 1 μM, read-out: Percentage of inhibition of Topo II, 1 μM; for inhibition at 10 µM: compound at 10 μM, read-out: Percentage of inhibition of Topo II, 10 μM; for inhibition at 100 µM: compound at 100 μM, read-out: Percentage of inhibition of Topo II, 100 μM
T1 construct: purchased USB Corp., USA
T1 sequence (P11388 whole entry): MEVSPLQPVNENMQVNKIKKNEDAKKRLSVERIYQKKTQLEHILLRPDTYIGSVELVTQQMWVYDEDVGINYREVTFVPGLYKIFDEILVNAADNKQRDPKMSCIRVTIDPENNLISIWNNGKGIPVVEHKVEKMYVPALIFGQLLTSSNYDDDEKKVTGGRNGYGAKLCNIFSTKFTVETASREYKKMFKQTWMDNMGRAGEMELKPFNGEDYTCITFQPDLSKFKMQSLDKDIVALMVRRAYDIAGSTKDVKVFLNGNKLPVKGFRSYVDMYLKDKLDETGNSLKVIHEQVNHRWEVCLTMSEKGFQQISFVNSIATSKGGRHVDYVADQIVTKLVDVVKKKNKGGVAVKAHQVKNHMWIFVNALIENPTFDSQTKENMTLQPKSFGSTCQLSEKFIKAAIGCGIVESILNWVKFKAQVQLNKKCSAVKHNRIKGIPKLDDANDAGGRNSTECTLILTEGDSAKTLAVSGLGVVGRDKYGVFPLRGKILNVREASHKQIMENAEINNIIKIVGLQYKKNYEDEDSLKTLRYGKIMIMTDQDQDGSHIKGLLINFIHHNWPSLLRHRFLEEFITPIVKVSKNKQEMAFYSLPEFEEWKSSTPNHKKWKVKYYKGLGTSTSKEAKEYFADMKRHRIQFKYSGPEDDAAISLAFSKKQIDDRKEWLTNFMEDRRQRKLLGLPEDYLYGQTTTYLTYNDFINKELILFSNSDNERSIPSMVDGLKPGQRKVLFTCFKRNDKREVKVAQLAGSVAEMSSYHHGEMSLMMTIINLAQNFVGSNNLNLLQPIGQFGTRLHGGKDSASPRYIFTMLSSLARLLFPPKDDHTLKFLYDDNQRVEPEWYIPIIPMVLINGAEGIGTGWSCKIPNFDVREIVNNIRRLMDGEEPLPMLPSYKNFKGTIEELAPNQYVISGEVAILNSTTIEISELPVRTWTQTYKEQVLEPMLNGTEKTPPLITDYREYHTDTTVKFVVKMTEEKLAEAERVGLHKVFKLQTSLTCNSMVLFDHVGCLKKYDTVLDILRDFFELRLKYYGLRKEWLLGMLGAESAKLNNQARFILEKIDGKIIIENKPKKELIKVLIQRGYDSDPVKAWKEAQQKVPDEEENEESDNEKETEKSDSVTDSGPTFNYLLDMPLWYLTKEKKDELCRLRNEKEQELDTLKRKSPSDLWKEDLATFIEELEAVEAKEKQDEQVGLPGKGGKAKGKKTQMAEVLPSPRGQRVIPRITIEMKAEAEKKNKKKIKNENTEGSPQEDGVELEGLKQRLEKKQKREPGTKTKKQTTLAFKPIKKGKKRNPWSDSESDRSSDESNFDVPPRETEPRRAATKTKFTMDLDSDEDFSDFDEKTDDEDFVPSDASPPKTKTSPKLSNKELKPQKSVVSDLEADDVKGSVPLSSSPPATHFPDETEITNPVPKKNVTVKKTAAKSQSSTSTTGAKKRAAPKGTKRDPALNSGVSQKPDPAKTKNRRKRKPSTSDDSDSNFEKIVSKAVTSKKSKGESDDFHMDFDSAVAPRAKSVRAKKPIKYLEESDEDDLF
Method: DNA Topo II inhibitory activities of the targeted compounds were measured as follows. A mixture of 100 ng of supercoiled pBR322 plasmid DNA (Fermentas, USA) and 2 units of human DNA Topo II (USB Corp., USA) was incubated with and without the prepared compounds in the assay buffer (10 µM Tris-HCl pH 7.9) containing 50 µM NaCl, 4 µM MgCl2, 1 µM EDTA, 1 µM ATP, and 15 mg/ml bovine serum albumin for 30 min at 37 °C. The reaction in a final volume of 10 µl was terminated by the addition of 4 µl of 6 µM EDTA. DNA samples were then electrophoresed on 1% agarose gel containing 0.5 µg/ml ethidium bromide in gel and buffer at high voltage (100–250 v) until the dye front has migrated about 4–6 cm down the gel. with a running buffer of TAE Tris-acetate– EDTA (TAE). Gels were stained for 15 min in water. DNA bands were visualised by transillumination with UV light and quantitated using AlphaI-maker TM (Alpha Innotech Corporation).
Well-known Topo II inhibitor doxorubicin was used as a positive control. The reaction products of Topo II relaxation assays were analysed by electrophoretic mobility and developed in ethidium bromide in the presence of UV light. The inhibitory activities were evaluated at 4 concentrations of 100, 10, 1, and 0.1 μM for all compounds as shown in (Figure 6). Topo II inhibitory activities of the tested compounds are summarised in (Table 2).

[4] = tested on: active caspase-3; test: Active caspase-3 ELISA in T-24 cells; format: cell-based, human; details: 6 at 5.68 μM, 8a at 3.36 μM, means of three experiments
Method: The level of the apoptotic marker caspase-3 was measured using The Invitrogen Caspase-3 (active) Human ELISA Kit. The procedure of the used kit was done according to the manufacturer’s instructions.
Caspase-3 (a key effector enzyme) plays an important role in apoptosis since its activation leads to catalysing specific enzymes responsible for DNA fragmentation, which leads to cell death. Apoptosis induction in T-24 cells by compounds 6 and 8a was investigated via caspase 3, compared to doxorubicin as a reference drug.

With `O=C(CN1CCN(c2cc3c(cc2F)c(=O)c(C(=O)O)cn3C2CC2)CC1)NN=C1CCCCC1` [Compound 7a, 7-(4-(2-(2-Cyclohexylidenehydrazinyl)-2-oxoethyl)piperazin-1-yl)-1-cyclopropyl-6-fluoro-4-oxo-1,4-dihydroquinoline-3-carboxylic acid] as the compound, how does the IC50 [1] read?
Its IC50 is 3.88 ± 0.21 µM.

And the IC50 [2]?
The IC50 was 9.35 ± 0.48 µM.

And the IC50 [3]?
The IC50 was 4.99 ± 0.27 µM.

And the inhibition at 0.1 µM [3]?
The inhibition at 0.1 µM was 13.7%.

What about the inhibition at 1 µM [3] of the same compound?
The inhibition at 1 µM was 27.9%.

What about the inhibition at 10 µM [3] of the same compound?
Its inhibition at 10 µM is 55.9%.

What about the inhibition at 100 µM [3] of the same compound?
The inhibition at 100 µM was 83.6%.

And the melting point?
The melting point was 256 to 258 °C.

What does the source list for `CC(=NNC(=O)CN1CCN(c2cc3c(cc2F)c(=O)c(C(=O)O)cn3C2CC2)CC1)c1ccc(Cl)cc1` [Compound 7b, 7-(4-(2-(2-(1-(4-Chlorophenyl)ethylidene)hydrazinyl)-2-oxoethyl)-piperazin-1-yl)-1-cyclopropyl-6-fluoro-4-oxo-1,4-dihydroquinoline-3-carboxylic acid]?
IC50 [1]: 11.5 ± 0.63 µM; IC50 [2]: 19 ± 0.96 µM; IC50 [3]: 3.34 ± 0.18 µM; inhibition at 0.1 µM [3]: 18.4%; inhibition at 1 µM [3]: 34%; inhibition at 10 µM [3]: 60.3%; inhibition at 100 µM [3]: 85.2%; melting point: 178 to 180 °C

With `O=C(CN1CCN(c2cc3c(cc2F)c(=O)c(C(=O)O)cn3C2CC2)CC1)NNC(=O)Nc1ccc(Cl)c(C(F)(F)F)c1` [Compound 9a, 7-(4-(2-(2-((4-Chloro-3-(trifluoromethyl)phenyl)carbamoyl)-hydrazinyl)-2-oxoethyl)piperazin-1-yl)-1-cyclopropyl-6-fluoro-4-oxo-1,4-dihydroquinoline-3-carboxylic acid] as the compound, how does the IC50 [1] read?
Its IC50 is 4.35 ± 0.24 µM.

And the IC50 [2]?
Its IC50 is 67.2 ± 3.42 µM.

What about the IC50 [3] of the same compound?
Its IC50 is 2.58 ± 0.14 µM.

What about the inhibition at 0.1 µM [3] of the same compound?
The inhibition at 0.1 µM was 23.6%.

What about the inhibition at 1 µM [3] of the same compound?
The inhibition at 1 µM was 40.3%.

What about the inhibition at 10 µM [3] of the same compound?
Its inhibition at 10 µM is 57%.

And the inhibition at 100 µM [3]?
Its inhibition at 100 µM is 86.5%.

And the melting point?
Its melting point is 186 to 188 °C.

What does the source list for `O=C(CN1CCN(c2cc3c(cc2F)c(=O)c(C(=O)O)cn3C2CC2)CC1)NNCC(=O)c1ccc([N+](=O)[O-])cc1` [Compound 10c, 1-Cyclopropyl-6-fluoro-7-(4-(2-(2-(2-(4-nitrophenyl)-2-oxoethyl)-hydrazinyl)-2-oxoethyl)piperazin-1-yl)-4-oxo-1,4-dihydroquinoline-3-carboxylic acid]?
IC50 [1]: 10.1 ± 0.55 µM; IC50 [2]: 3.25 ± 0.167 µM; IC50 [3]: 1.69 ± 0.09 µM; inhibition at 0.1 µM [3]: 24.8%; inhibition at 1 µM [3]: 37.7%; inhibition at 10 µM [3]: 72.6%; inhibition at 100 µM [3]: 90.2%; melting point: 221 to 223 °C

With `COc1cccc2c1C(=O)c1c(O)c3c(c(O)c1C2=O)C[C@@](O)(C(=O)CO)C[C@@H]3O[C@H]1C[C@H](N)[C@H](O)[C@H](C)O1` [Doxorubicin, reference compound] as the compound, how does the IC50 [1] read?
The IC50 was 29.1 ± 1.56 µM.

And the IC50 [2]?
The IC50 was 23.1 ± 1.18 µM.

And the IC50 [3]?
Its IC50 is 1.72 ± 0.08 µM.

And the “Caspase-3 conc. (pg/ml* ± SD)” value [4]?
Its value is 598.8 ± 8.63 pg/mL.

Reference: PMC9635472, “Design, synthesis, and biological evaluation of novel ciprofloxacin derivatives as potential anticancer agents targeting topoisomerase II enzyme” (Journal of Enzyme Inhibition and Medicinal Chemistry, 2022)
